Source: ChEMBL document CHEMBL4732086, “Targeting nuclear protein TDP-43 by cell division cycle kinase 7 inhibitors: A new therapeutic approach for amyotrophic lateral sclerosis” (Eur J Med Chem, 2021)
Calls of active or inactive are those of the source. The calls are words filed in the database; no cut-off is given here.

Columns and labels:
[1] = biological target: Cell division cycle 7-related protein kinase (Homo sapiens) (UniProt O00311); assay: Inhibition of human CDC7 in human SH-SY5Y cells assessed as prevention of ethacrynic acid-induced cell death preincubated for 1 hr followed by incubation with ethacrynic acid for 24 hrs measured at 10 uM by MTT assay relative to control; assay type: cell-based
[2] = biological target: CDC7/DBF4 (Cell division cycle 7-related protein kinase/Activator of S phase kinase) (Homo sapiens, UniProt O00311); assay: Inhibition of recombinant human CDC7/Dbf4 expressed in baculovirus infected Sf9 insect cells assessed as inhibition of fluorescein labelled substrate phosphorylation in presence of ATP measured after 60 mins by TR-FRET assay
[3] = biological target: CDC7/DBF4 (Cell division cycle 7-related protein kinase/Activator of S phase kinase) (Homo sapiens) (UniProt Q9UBU7+O00311); assay: Inhibition of recombinant human CDC7/Dbf4 expressed in baculovirus infected Sf9 insect cells assessed as inhibition of fluorescein labelled substrate phosphorylation in presence of ATP at 10 uM measured after 60 mins by TR-FRET assay
Chain of CDC7/DBF4 (Cell division cycle 7-related protein kinase/Activator of S phase kinase) (Homo sapiens) (O00311 whole entry, looked up): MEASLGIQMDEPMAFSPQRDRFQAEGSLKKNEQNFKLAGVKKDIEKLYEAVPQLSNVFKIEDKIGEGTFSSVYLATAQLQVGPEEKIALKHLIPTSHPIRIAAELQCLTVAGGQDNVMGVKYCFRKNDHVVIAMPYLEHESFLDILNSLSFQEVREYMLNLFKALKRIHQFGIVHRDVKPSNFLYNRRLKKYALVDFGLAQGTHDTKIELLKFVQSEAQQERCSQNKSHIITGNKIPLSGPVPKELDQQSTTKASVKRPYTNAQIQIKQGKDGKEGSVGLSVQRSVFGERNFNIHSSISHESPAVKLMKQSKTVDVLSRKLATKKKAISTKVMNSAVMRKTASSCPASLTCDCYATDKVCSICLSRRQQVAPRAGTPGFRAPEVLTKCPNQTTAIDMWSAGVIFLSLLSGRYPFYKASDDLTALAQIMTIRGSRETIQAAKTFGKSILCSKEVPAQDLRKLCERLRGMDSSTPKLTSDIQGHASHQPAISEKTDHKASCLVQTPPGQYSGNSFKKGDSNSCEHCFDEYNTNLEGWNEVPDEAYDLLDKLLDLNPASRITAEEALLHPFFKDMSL
Chain of CDC7/DBF4 (Cell division cycle 7-related protein kinase/Activator of S phase kinase) (Homo sapiens) (Q9UBU7 whole entry, looked up): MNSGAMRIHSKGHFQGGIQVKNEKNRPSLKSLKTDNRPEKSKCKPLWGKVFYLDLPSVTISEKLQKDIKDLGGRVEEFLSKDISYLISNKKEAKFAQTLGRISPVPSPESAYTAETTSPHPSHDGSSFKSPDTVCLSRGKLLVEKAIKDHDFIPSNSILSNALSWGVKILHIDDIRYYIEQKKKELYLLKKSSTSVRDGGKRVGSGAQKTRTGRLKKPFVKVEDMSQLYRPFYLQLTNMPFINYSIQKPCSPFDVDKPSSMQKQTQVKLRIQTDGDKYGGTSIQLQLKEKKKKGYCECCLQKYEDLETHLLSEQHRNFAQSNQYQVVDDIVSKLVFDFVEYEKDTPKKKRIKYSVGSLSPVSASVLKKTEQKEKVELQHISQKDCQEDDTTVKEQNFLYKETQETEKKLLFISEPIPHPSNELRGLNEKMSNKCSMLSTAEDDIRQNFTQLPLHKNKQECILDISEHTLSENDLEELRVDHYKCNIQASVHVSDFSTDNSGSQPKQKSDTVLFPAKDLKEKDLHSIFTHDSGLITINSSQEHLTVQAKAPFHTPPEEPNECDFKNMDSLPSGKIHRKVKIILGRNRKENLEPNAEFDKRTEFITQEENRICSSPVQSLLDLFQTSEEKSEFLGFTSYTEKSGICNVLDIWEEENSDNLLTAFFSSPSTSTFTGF

Chain of Cell division cycle 7-related protein kinase (Homo sapiens) (O00311 whole entry, looked up): as the sequence (O00311 whole entry, looked up) above
Chain of CDC7/DBF4 (Cell division cycle 7-related protein kinase/Activator of S phase kinase) (Q9UBU7 whole entry): as the sequence (Q9UBU7 whole entry, looked up) above
Chain of CDC7/DBF4 (Cell division cycle 7-related protein kinase/Activator of S phase kinase) (O00311 whole entry): as the sequence (O00311 whole entry, looked up) above

| SMILES | inhibition [1] | IC50 [2] | inhibition [3] |
| --- | --- | --- | --- |
| FC(F)(F)c1ccc(CSc2ncnc3[nH]cnc23)cc1 | Active | 0.36 µM | – |
| Clc1cccc(COc2ncnc3[nH]cnc23)c1 | Active | 0.19 µM | – |
| Clc1ccc(CCSc2ncnc3[nH]cnc23)cc1 | Active | 0.14 µM | – |
| N#Cc1cccc(CSc2ncnc3[nH]cnc23)c1 | – | 0.34 µM | – |
| O=C(CSc1ncnc2[nH]cnc12)c1ccc(Br)cc1 | – | 2.12 µM | – |
| Clc1cccc(CCSc2ncnc3c2ncn3CCc2cccc(Cl)c2)c1 | – | – | 8% |
| Fc1ccc(CCSc2ncnc3[nH]cnc23)cc1 | Active | 0.39 µM | – |
| Ic1cccc(CSc2ncnc3[nH]cnc23)c1 | Active | 0.08 µM | – |
| O=[N+]([O-])c1cccc(CSc2ncnc3[nH]cnc23)c1 | – | 0.19 µM | – |
| Ic1ccc(CSc2ncnc3[nH]cnc23)cc1 | Active | 0.3 µM | – |
| Fc1cccc(CSc2ncnc3[nH]cnc23)c1 | Active | 0.36 µM | – |
| Ic1ccccc1CSc1ncnc2c1ncn2Cc1ccccc1I | – | – | 4% |
| CC(=O)Nc1ccc(CSc2ncnc3[nH]cnc23)cc1 | – | 0.47 µM | – |
| O=C(CSc1[nH]cnc2ncnc1-2)c1ccc([N+](=O)[O-])cc1 | – | 3.11 µM | – |
| Clc1ccccc1CSc1ncnc2[nH]cnc12 | Active | 0.09 µM | – |
| c1ccc(CSc2ncnc3[nH]ccc23)cc1 | Active | 0.23 µM | – |
| O=C(CSc1[nH]cnc2ncnc1-2)c1ccc(Cl)cc1 | – | 4.15 µM | – |
| FC(F)(F)c1cccc(CSc2ncnc3[nH]cnc23)c1 | Active | 0.32 µM | – |
| c1ccc(CSc2ncnc3c2ncn3Cc2ccccc2)cc1 | – | – | 0% |
| Clc1ccccc1CCSc1ncnc2c1ncn2CCc1ccccc1Cl | – | – | 4% |
| N#Cc1ccc(CSc2ncnc3[nH]cnc23)cc1 | – | 0.29 µM | – |
| CSc1ccc(CSc2ncnc3[nH]cnc23)cc1 | Active | 0.14 µM | – |
| Fc1ccc(CCSc2ncnc3c2ncn3CCc2ccc(F)cc2)cc1 | – | – | 12% |

| SMILES | inhibition [1] | IC50 [2] | inhibition [3] |
| --- | --- | --- | --- |
| Clc1cccc(CSc2ncnc3c2ncn3Cc2cccc(Cl)c2)c1 | – | – | 30% |
| FC(F)(F)c1ccccc1CSc1ncnc2c1ncn2Cc1ccccc1C(F)(F)F | – | – | 9% |
| O=[N+]([O-])c1ccc(CSc2ncnc3[nH]cnc23)cc1 | Active | 0.13 µM | – |
| Brc1ccc(Sc2ncnc3[nH]cnc23)cc1 | – | 1.38 µM | – |
| Clc1ccc(CSc2[nH]cnc3ncnc2-3)cc1 | Active | 0.18 µM | – |
| Brc1ccc(CSc2[nH]cnc3ncnc2-3)cc1 | Active | 0.44 µM | – |
| c1ccc(CSc2ncnc3sccc23)cc1 | – | – | 18% |
| OCc1ccc(CSc2ncnc3[nH]cnc23)cc1 | – | 0.3 µM | – |
| Brc1cccc(CSc2ncnc3[nH]cnc23)c1 | – | 0.13 µM | – |
| Clc1ccc(CCSc2ncnc3c2ncn3CCc2ccc(Cl)cc2)cc1 | – | – | 3% |
| Ic1ccccc1CSc1ncnc2[nH]cnc12 | Active | 0.58 µM | – |
| Brc1ccc(COc2ncnc3[nH]cnc23)cc1 | Active | 0.91 µM | – |
| Clc1cccc(CCSc2ncnc3[nH]cnc23)c1 | Active | 0.3 µM | – |
| Clc1ccccc1CCSc1ncnc2[nH]cnc12 | Active | 0.19 µM | – |
| Clc1ccccc1CSc1ncnc2c1ncn2Cc1ccccc1Cl | – | – | 7% |
| FC(F)(F)c1ccccc1CSc1ncnc2[nH]cnc12 | Active | 0.25 µM | – |
| Brc1cccc(CSc2ncnc3sccc23)c1 | – | – | 11% |
| Clc1cccc(CNc2ncnc3nc[nH]c23)c1 | – | 3.06 µM | – |
| c1ccc(COc2[nH]cnc3ncnc2-3)cc1 | – | 0.17 µM | – |
| COc1cccc(CSc2ncnc3[nH]cnc23)c1 | Active | 0.24 µM | – |
| Brc1cccc(CSc2ncnc3[nH]ccc23)c1 | – | 0.39 µM | – |
| COc1ccc(Sc2ncnc3[nH]cnc23)cc1 | – | 1.72 µM | – |
